Holding throughout (test): relative viability (nuclei count vs DMSO), 5 days (fraction); higher = more cells survive
Compound in the assay “XMD13-2 + OSI-027”: C1CC1C(=O)NC2=NNC3=C2C=CC(=C3)C4=CC(=CC=C4)C(=O)NC5CC5 [XMD13-2] + COc1cccc2cc(-c3nc([C@H]4CC[C@H](C(=O)O)CC4)n4ncnc(N)c34)[nH]c12 [OSI-027] (partner 0.5 µM)
In outline:
(§1)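 Lung cancer cell lines, seeded in 1536-well plates, were treated the following day by pin tool with a single drug or with five library-drug doses (not always all listed) in √10 steps on top of a fixed anchor-drug dose. Cells were fixed and nuclei stained in one step after 5 days, and nuclei were counted. Relative viability is the nuclei count for treated wells divided by that for vehicle wells, reported as medians of duplicate plates.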

Compound in the assay “XMD13-2 + Tozasertib”: C1CC1C(=O)NC2=NNC3=C2C=CC(=C3)C4=CC(=CC=C4)C(=O)NC5CC5 [XMD13-2] + Cc1cc(Nc2cc(N3CCN(C)CC3)nc(Sc3ccc(NC(=O)C4CC4)cc3)n2)n[nH]1 [Tozasertib] (partner 0.1 µM)
In outline: as §1

Compound in the assay “Dasatinib + Tozasertib”: Cc1nc(Nc2ncc(C(=O)Nc3c(C)cccc3Cl)s2)cc(N2CCN(CCO)CC2)n1 [Dasatinib] + Cc1cc(Nc2cc(N3CCN(C)CC3)nc(Sc3ccc(NC(=O)C4CC4)cc3)n2)n[nH]1 [Tozasertib] (partner 0.1 µM)
The gist of the method:
as §1

Compound in the assay “Dasatinib + Alpelisib”: Cc1nc(Nc2ncc(C(=O)Nc3c(C)cccc3Cl)s2)cc(N2CCN(CCO)CC2)n1 [Dasatinib] + Cc1nc(NC(=O)N2CCC[C@H]2C(N)=O)sc1-c1ccnc(C(C)(C)C(F)(F)F)c1 [Alpelisib] (partner 2 µM)
In outline:
as §1

Drawing on the supplement of paper PMC10307832, this text covers relative viability for five cell lines.

Take NCI-H1734: the relative viability with XMD13-2 + OSI-027 (first compound 0.05 µM) was 0.683; with XMD13-2 + OSI-027 (first compound 0.1581 µM), 0.554; in the assay with XMD13-2 + OSI-027 (first compound 0.5 µM), 0.647; with XMD13-2 + OSI-027 (first compound 1.581 µM), 0.502; with XMD13-2 + OSI-027 (first compound 5 µM) it was 0.447; in the assay with XMD13-2 + Tozasertib (first compound 0.05 µM), 0.258. Further, the relative viability with XMD13-2 + Tozasertib (first compound 0.1581 µM) worked out at 0.245; with XMD13-2 + Tozasertib (first compound 0.5 µM) it was 0.271; with XMD13-2 + Tozasertib (first compound 1.581 µM) it was 0.228; in the assay with XMD13-2 + Tozasertib (first compound 5 µM) it was 0.205; with Dasatinib + Tozasertib (first compound 0.005 µM), 0.26; with Dasatinib + Tozasertib (first compound 0.01581 µM) it was 0.285. Further, the relative viability amounted to 0.235 with Dasatinib + Tozasertib (first compound 0.05 µM); 0.165 with Dasatinib + Tozasertib (first compound 0.1581 µM); 0.181 with Dasatinib + Tozasertib (first compound 0.5 µM); 0.553 in the assay with Dasatinib + Alpelisib (first compound 0.005 µM); 0.477 with Dasatinib + Alpelisib (first compound 0.01581 µM); 0.469 in the assay with Dasatinib + Alpelisib (first compound 0.05 µM). The relative viability worked out at 0.346 with Dasatinib + Alpelisib (first compound 0.1581 µM) and 0.278 with Dasatinib + Alpelisib (first compound 0.5 µM).

Take SK-MES-1: the relative viability is 0.597 with XMD13-2 + OSI-027 (first compound 0.05 µM); 0.571 with XMD13-2 + OSI-027 (first compound 0.1581 µM); 0.618 with XMD13-2 + OSI-027 (first compound 0.5 µM); 0.564 with XMD13-2 + OSI-027 (first compound 1.581 µM); 0.673 with XMD13-2 + OSI-027 (first compound 5 µM); 0.998 in the assay with XMD13-2 + Tozasertib (first compound 0.05 µM). Besides, the relative viability with XMD13-2 + Tozasertib (first compound 0.1581 µM) worked out at 0.879; in the assay with XMD13-2 + Tozasertib (first compound 0.5 µM), 0.919; with XMD13-2 + Tozasertib (first compound 1.581 µM), 0.804; with XMD13-2 + Tozasertib (first compound 5 µM), 0.72; in the assay with Dasatinib + Tozasertib (first compound 0.005 µM) it was 0.972; with Dasatinib + Tozasertib (first compound 0.01581 µM), 1.02. Further, the relative viability came out at 0.938 with Dasatinib + Tozasertib (first compound 0.05 µM); 0.556 in the assay with Dasatinib + Tozasertib (first compound 0.1581 µM); 0.22 with Dasatinib + Tozasertib (first compound 0.5 µM); 0.991 with Dasatinib + Alpelisib (first compound 0.005 µM); 0.713 with Dasatinib + Alpelisib (first compound 0.05 µM); 0.474 with Dasatinib + Alpelisib (first compound 0.1581 µM). The relative viability in the assay with Dasatinib + Alpelisib (first compound 0.5 µM) was 0.251.

Consider Calu-6, for which the relative viability with Dasatinib + Alpelisib (first compound 0.005 µM) came out at 0.801; with Dasatinib + Alpelisib (first compound 0.01581 µM), 0.665; with Dasatinib + Alpelisib (first compound 0.05 µM) it was 0.731; with Dasatinib + Alpelisib (first compound 0.1581 µM) it was 0.613; with Dasatinib + Alpelisib (first compound 0.5 µM), 0.576.

HCC-15: the relative viability worked out at 0.765 with XMD13-2 + OSI-027 (first compound 0.05 µM); 0.723 in the assay with XMD13-2 + OSI-027 (first compound 0.1581 µM); 0.733 with XMD13-2 + OSI-027 (first compound 0.5 µM); 0.546 with XMD13-2 + OSI-027 (first compound 1.581 µM); 0.484 in the assay with XMD13-2 + OSI-027 (first compound 5 µM); 0.522 in the assay with XMD13-2 + Tozasertib (first compound 0.05 µM). Also, the relative viability came out at 0.422 with XMD13-2 + Tozasertib (first compound 0.1581 µM); 0.402 with XMD13-2 + Tozasertib (first compound 0.5 µM); 0.425 in the assay with XMD13-2 + Tozasertib (first compound 1.581 µM); 0.463 with XMD13-2 + Tozasertib (first compound 5 µM); 0.424 in the assay with Dasatinib + Tozasertib (first compound 0.005 µM); 0.403 with Dasatinib + Tozasertib (first compound 0.01581 µM). Moreover, the relative viability worked out at 0.338 in the assay with Dasatinib + Tozasertib (first compound 0.05 µM); 0.251 with Dasatinib + Tozasertib (first compound 0.1581 µM); 0.235 with Dasatinib + Tozasertib (first compound 0.5 µM); 0.875 with Dasatinib + Alpelisib (first compound 0.005 µM); 0.783 with Dasatinib + Alpelisib (first compound 0.01581 µM); 0.779 in the assay with Dasatinib + Alpelisib (first compound 0.05 µM). For the same cell line, the figures for the relative viability with Dasatinib + Alpelisib (first compound 0.1581 µM) and with Dasatinib + Alpelisib (first compound 0.5 µM) were 0.53 and 0.528, respectively.

As for SK-LU-1, the relative viability was 0.382 with XMD13-2 + OSI-027 (first compound 0.05 µM); 0.375 with XMD13-2 + OSI-027 (first compound 0.1581 µM); 0.426 with XMD13-2 + OSI-027 (first compound 0.5 µM); 0.311 in the assay with XMD13-2 + OSI-027 (first compound 1.581 µM); 0.389 in the assay with XMD13-2 + OSI-027 (first compound 5 µM); 0.335 in the assay with XMD13-2 + Tozasertib (first compound 0.05 µM). The relative viability in the assay with XMD13-2 + Tozasertib (first compound 0.1581 µM) came out at 0.338; with XMD13-2 + Tozasertib (first compound 0.5 µM) it was 0.432; in the assay with XMD13-2 + Tozasertib (first compound 1.581 µM), 0.309; with XMD13-2 + Tozasertib (first compound 5 µM), 0.323; with Dasatinib + Tozasertib (first compound 0.005 µM), 0.272; with Dasatinib + Tozasertib (first compound 0.01581 µM), 0.194. The relative viability with Dasatinib + Tozasertib (first compound 0.05 µM) was determined as 0.156; with Dasatinib + Tozasertib (first compound 0.1581 µM), 0.101; with Dasatinib + Tozasertib (first compound 0.5 µM), 0.0919; with Dasatinib + Alpelisib (first compound 0.005 µM) it was 0.623; with Dasatinib + Alpelisib (first compound 0.01581 µM) it was 0.399; in the assay with Dasatinib + Alpelisib (first compound 0.05 µM), 0.318. Moreover, the relative viability with Dasatinib + Alpelisib (first compound 0.1581 µM) worked out at 0.2; with Dasatinib + Alpelisib (first compound 0.5 µM) it was 0.234.
